Experimental data as given in patent US20250250298A1, “ONCOLYTIC PEPTIDE AND USE THEREOF” (Rise Biopharmaceuticals Inc., priority 2022, published 2025).
Where a SMILES comes first, the peptide text is derived from it. Where no end group is shown, it is not given here.

Key:
[1] = tested on: A375 (human malignant melanoma); experiment: MTT cytotoxicity, A375; format: cell-based; conditions: A375, 24 hours incubation
Source text: (§1) The MTT assay is a colorimetric method for measuring the activity of enzymes in living cells that reduces Thiazolyl blue tetrazolium bromide (MTT) to formazan dyes showing a purple color. In this embodiment, a colorimetric 3-(4.5-dimethylthiazol-2-yl)-2.5-diphenyltetrazodium bromide (MTT) viability assay was used to assess the in vitro cytotoxicity of oncolytic peptides.
(§2) The half inhibition concentration (IC50) is the concentration required by the oncolytic peptides to reach fifty percent inhibition. In one embodiment, the oncolytic peptides were used for IC50 test via MTT colorimetric assay.
(§3) All cancer cell lines were seeded in a 96-well plate with a concentration of 5000-8000 cells/100 μl/well and incubated for 24 hrs. After medium was removed, 100 μl fresh medium containing peptide (ranging from 50 μM to 0.8 μM) was added to the wells. Following 24 hours incubation, fresh medium with MTT (0.5 mg/ml) was replaced and incubated for 3 hours. After medium/MTT was removed, DMSO was added at 100 μl for dissolving the formazan crystal. Cell survival rate was calculated by measuring the absorbance at 540 nm using a Multi-labeled Microplate Reader (Sunrise™, TECAN).

[2] = tested on: A549 (Human non-small cell lung cancer cell); experiment: MTT cytotoxicity, A549; format: cell-based; conditions: A549, 24 hours incubation
Source text: as §1, §2
(§4) Human lung cancer lines PC9 and A549 and murine pancreatic cancer cell line Panc02 were cultured in RPMI medium supplemented with 10% fetal bovine serum and antibiotic in this embodiment. Additionally, murine hepatoma cell line Hepa 1-6, murine melanoma cell line B16-F10, murine fibrosarcoma cell line MN-11, murine mammary cancer cell line E0771 and human diploid fibroblast (HFW) were cultured in DMEM medium supplemented with 10% fetal bovine serum and antibiotic. Cells were cultured in a humidified incubator containing 5% CO2 at 37° C.
as §3

[3] = tested on: Hepa I-6 (Murine hepatocellular carcinoma); experiment: MTT cytotoxicity, Hepa 1-6; format: cell-based; conditions: Hepa I-6, 24 hours incubation
Source text: as §1, §2, §4, §3

HFW (Human fibroblast) = experiment: MTT cytotoxicity, HFW; format: cell-based; conditions: 24 hours incubation
Source text: as §1, §2, §4, §3

[4] = tested on: SAS (Human tongue carcinoma); experiment: MTT cytotoxicity, SAS; format: cell-based; conditions: 24 hours incubation
Source text: as §1, §2, §3

[5] = tested on: HUVEC (Human Umbilical Vein Endothelial (Cell)); experiment: MTT cytotoxicity, HUVEC; format: cell-based; conditions: 24 hours incubation
Source text: as §1, §2, §3

[6] = tested on: B16-F10 (Murine skin malignant melanoma); experiment: MTT cytotoxicity, B16-F10; format: cell-based; conditions: B16-F10, 24 hours incubation
Source text: as §1, §2, §4, §3

RBC (Human blood cell) = experiment: Cytotoxicity, RBC; format: cell-based
Source text: as §2

[7] = tested on: NCI-N87 (Human gastric carcinoma); experiment: MTT cytotoxicity, NCI-N87; format: cell-based; conditions: NCI-N87, 24 hours incubation
Source text: as §1, §2, §3

[8] = tested on: HepG2 Cancer Cells (Human hepatocellular carcinoma); experiment: MTT cytotoxicity, HepG2; format: cell-based; conditions: HepG2, 24 hours incubation
Source text: as §1, §2, §3

Panc02 = experiment: MTT cytotoxicity, Panc02; format: cell-based, murine; conditions: Panc02, 24 hours incubation
Source text: as §1, §2, §4, §3

[9] = tested on: OECM-1 (Human oral cancer cell); experiment: MTT cytotoxicity, OECM-1; format: cell-based; conditions: OECM-1, 24 hours incubation
Source text: as §1, §2, §3

[10] = tested on: PC9 (Human non-small cell lung cancer cell); experiment: MTT cytotoxicity, PC9; format: cell-based; conditions: PC9, 24 hours incubation
Source text: as §1, §2, §4, §3

[11] = tested on: C9 (Human oral cancer cell); experiment: MTT cytotoxicity, C9; format: cell-based; conditions: C9, 24 hours incubation
Source text: as §1, §2, §3

[12] = tested on: HCT-15 (Human colorectal cancer); experiment: MTT cytotoxicity, HCT-15; format: cell-based; conditions: HCT-15, 24 hours incubation
Source text: as §1, §2, §3

[13] = tested on: MN-11 (Murine fibrosarcoma); experiment: MTT cytotoxicity, MN-11; format: cell-based; conditions: MN-11, 24 hours incubation
Source text: as §1, §2, §4, §3

[14] = tested on: EO771 (Murine mammary adenocarcinoma); experiment: MTT cytotoxicity, EO771; format: cell-based; conditions: EO771, 24 hours incubation
Source text: as §1, §2, §4, §3

## CC(C)C[C@H](NC(=O)[C@H](Cc1ccc2ccccc2c1)NC(=O)[C@H](CCCCN)NC(=O)[C@H](CC(C)C)NC(=O)[C@H](Cc1c[nH]c2ccccc12)NC(=O)[C@H](CCCCN)NC(=O)[C@H](CCCNC(=N)N)NC(=O)[C@H](Cc1c[nH]c2ccccc12)NC(=O)[C@H](CCCCN)NC(=O)[C@H](CCCCN)NC(=O)[C@H](CCCCN)NC(=O)[C@H](CCCCN)NC(=O)[C@H](CCCCN)NC(=O)[C@H](CCCCN)NC(=O)[C@H](CCCCN)NC(=O)[C@@H](N)CCCCN)C(=O)N[C@@H](C)C(=O)N[C@@H](CCCCN)C(=O)N[C@@H](CCCCN)C(N)=O [SEQ ID NO: 2, KKKK-KK-KK-WRK-WLK-Nal-LA-KK-NH2] (HELM PEPTIDE1{K.K.K.K.K.K.K.K.W.R.K.W.L.K.[O=C([C@H](Cc1ccc2ccccc2c1)N[*:1])[*:2]].L.A.K.K.[am]}$$$$V2.0; N-terminus assumed)
[1]
  IC50: 5.59 µM
[2]
  IC50: 6.34 µM
[3]
  IC50: 8.5 µM
HFW (Human fibroblast)
  IC50: 11 µM
[4]
  IC50: 15.8 µM
[5]
  IC50: 9.03 µM
[6]
  IC50: 13.7 µM
RBC (Human blood cell)
  IC50: 45 µM
[7]
  IC50: 8.58 µM
[8]
  IC50: 11 µM
Panc02
  IC50: 7.17 µM
[9]
  IC50: 15.5 µM
[10]
  IC50: 4.36 µM
[11]
  IC50: 16 µM
[12]
  IC50: 6.6 µM
[13]
  IC50: 13.4 µM
[14]
  IC50: 10.1 µM

## CC(C)C[C@H](NC(=O)[C@H](Cc1ccc2ccccc2c1)NC(=O)[C@H](CCCCN)NC(=O)[C@H](CC(C)C)NC(=O)[C@H](Cc1c[nH]c2ccccc12)NC(=O)[C@H](CCCCN)NC(=O)[C@H](CCCNC(=N)N)NC(=O)[C@H](Cc1c[nH]c2ccccc12)NC(=O)[C@H](CCCCN)NC(=O)[C@H](CCCCN)NC(=O)[C@H](CCCCN)NC(=O)[C@H](CCCCN)NC(=O)[C@H](CCCCN)NC(=O)[C@@H](N)CCCCN)C(=O)N[C@@H](C)C(=O)N[C@@H](CCCCN)C(N)=O [SEQ ID NO: 3, KKKK-KK-WRK-WLK-Nal-LAK-NH2] (HELM PEPTIDE1{K.K.K.K.K.K.W.R.K.W.L.K.[O=C([C@H](Cc1ccc2ccccc2c1)N[*:1])[*:2]].L.A.K.[am]}$$$$V2.0; N-terminus assumed)
[1]
  IC50: 8.27 µM
[2]
  IC50: 5.05 µM
[3]
  IC50: 7.16 µM
HFW (Human fibroblast)
  IC50: 9.15 µM
[4]
  IC50: 17.1 µM
[5]
  IC50: 7.61 µM
[6]
  IC50: 15.4 µM
RBC (Human blood cell)
  IC50: 38.4 µM
[7]
  IC50: 10.7 µM
[8]
  IC50: 15.7 µM
Panc02
  IC50: 8.43 µM
[9]
  IC50: 15.5 µM
[10]
  IC50: 6.85 µM
[11]
  IC50: 13.2 µM
[12]
  IC50: 8.89 µM
[13]
  IC50: 16.1 µM
[14]
  IC50: 6.32 µM

## CC(C)C[C@H](NC(=O)[C@H](Cc1ccc2ccccc2c1)NC(=O)[C@H](CCCCN)NC(=O)[C@H](CC(C)C)NC(=O)[C@H](Cc1c[nH]c2ccccc12)NC(=O)[C@H](CCCCN)NC(=O)[C@H](CC(C)C)NC(=O)[C@H](Cc1c[nH]c2ccccc12)NC(=O)[C@H](CCCNC(=N)N)NC(=O)[C@H](CCCNC(=N)N)NC(=O)[C@H](CCCCN)NC(=O)[C@H](CCCCN)NC(=O)[C@H](CCCCN)NC(=O)[C@@H](N)CCCCN)C(=O)N[C@@H](CCCCN)C(=O)N[C@@H](CCCCN)C(N)=O [SEQ ID NO: 6, KKKK-RR-WLK-WLK-Nal-LKK-NH2] (HELM PEPTIDE1{K.K.K.K.R.R.W.L.K.W.L.K.[O=C([C@H](Cc1ccc2ccccc2c1)N[*:1])[*:2]].L.K.K.[am]}$$$$V2.0; N-terminus assumed)
[1]
  IC50: 10.8 µM
[2]
  IC50: 7.07 µM
[3]
  IC50: 8.46 µM
HFW (Human fibroblast)
  IC50: 7.2 µM
[4]
  IC50: 15.6 µM
[5]
  IC50: 6.84 µM
[6]
  IC50: 10.5 µM
RBC (Human blood cell)
  IC50: 35.4 µM
[7]
  IC50: 9.41 µM
[8]
  IC50: 14.2 µM
Panc02
  IC50: 8.81 µM
[9]
  IC50: 16.4 µM
[10]
  IC50: 3.36 µM
[11]
  IC50: 12.7 µM
[12]
  IC50: 8.03 µM
[13]
  IC50: 5.56 µM
[14]
  IC50: 10 µM

## CC(C)C[C@H](NC(=O)[C@H](Cc1ccc2ccccc2c1)NC(=O)[C@H](CCCNC(=N)N)NC(=O)[C@H](CCCNC(=N)N)NC(=O)[C@H](CCCCN)NC(=O)[C@H](CCCCN)NC(=O)[C@H](CCCCN)NC(=O)[C@@H](N)CCCCN)C(=O)N[C@@H](C)C(=O)N[C@@H](CCCCN)C(N)=O [SEQ ID NO: 10, KKKK-RR-Nal-LAK-NH2] (HELM PEPTIDE1{K.K.K.K.R.R.[O=C([C@H](Cc1ccc2ccccc2c1)N[*:1])[*:2]].L.A.K.[am]}$$$$V2.0; N-terminus assumed)
[2]
  IC50: 46.3 µM
[3]
  IC50: 41.8 µM
HFW (Human fibroblast)
  IC50: 488 µM
[4]
  IC50: 98.4 µM
[6]
  IC50: 136 µM
[7]
  IC50: 82.9 µM
[8]
  IC50: 84.8 µM
Panc02
  IC50: 75.2 µM
[9]
  IC50: 35.1 µM
[11]
  IC50: 56.8 µM
[12]
  IC50: 57.6 µM
[13]
  IC50: 93.5 µM
[14]
  IC50: 55.4 µM

## KKKKKKKKWRKWLKWLAKK-NH2 [SEQ ID NO: 1, KKKK-KK-KK-WRK-WLK-WLA-KK-NH2]
[1]
  IC50: 10.6 µM
[2]
  IC50: 7.19 µM
[3]
  IC50: 13.3 µM
HFW (Human fibroblast)
  IC50: 16.3 µM
[4]
  IC50: 14.7 µM
[5]
  IC50: 9.35 µM
[6]
  IC50: 19.2 µM
RBC (Human blood cell)
  IC50: 52.6 µM
[7]
  IC50: 17.1 µM
[8]
  IC50: 13.4 µM
Panc02
  IC50: 13.4 µM
[9]
  IC50: 18.8 µM
[10]
  IC50: 8.48 µM
[11]
  IC50: 21 µM
[12]
  IC50: 12.2 µM
[13]
  IC50: 14.6 µM
[14]
  IC50: 16.7 µM

## KKKKRRKKWLKWLKWLKKK-NH2 [SEQ ID NO: 4, KKKK-RR-KK-WLK-WLK-WLK-KK-NH2]
[1]
  IC50: 9.98 µM
[2]
  IC50: 8.89 µM
[3]
  IC50: 10.5 µM
HFW (Human fibroblast)
  IC50: 20.5 µM
[4]
  IC50: 18.6 µM
[5]
  IC50: 4.66 µM
[6]
  IC50: 16.3 µM
RBC (Human blood cell)
  IC50: 58.6 µM
[7]
  IC50: 15.1 µM
[8]
  IC50: 14.6 µM
Panc02
  IC50: 16 µM
[9]
  IC50: 18 µM
[10]
  IC50: 7.87 µM
[11]
  IC50: 16.6 µM
[12]
  IC50: 10.8 µM
[13]
  IC50: 13.2 µM
[14]
  IC50: 13.9 µM
